The values below come from patent US10576064B2, “Spiro[3H-indole-3,2′-pyrrolidin]-2(1H)-one compounds and derivatives as MDM2-P53 inhibitors” (Boehringer Ingelheim International GmbH, priority 2014, dated 2020).

Structures are written as SMILES.

In the first series the target is p53-MDM2 interaction (GST-MDM2 protein aa 23-117 / biotinylated p53 wt peptide) (Homo sapiens (Human), UniProt Q00987). As to the kind of experiment: MDM2-p53 Inhibition AlphaScreen. It counts as biochemical. The note with it: 20 nM GST-MDM2 (aa 23-117), 20 nM biotinylated p53 wt peptide. An excerpt: MDM2-p53 Inhibition AlphaScreen
Background: Bead proximity is the source of the signal in Alpha formats.
On to `CCOc1cccc(CN2[C@H]3CCN(c4ccc(C(=O)O)cc4)C(=O)[C@H]3[C@H](c3cccc(Cl)c3F)[C@]23C(=O)Nc2cc(Cl)ccc23)c1` [Compound I-185], for which inhibition was half-maximal at 0.003 µM (IC50). On to `CC(C)(C)CN1[C@H]2CCN(c3ccc(S(C)(=O)=O)cc3)C(=O)[C@H]2[C@H](c2cccc(Cl)c2F)[C@]12C(=O)Nc1cc(Cl)ccc12` [Compound I-74], for which the IC50 stood at 0.342 µM. In the case of `O=C(O)c1ccc(N2C[C@H]3[C@@H](C2=O)[C@H](c2cccc(Br)c2F)[C@]2(C(=O)Nc4cc(Cl)ccc42)N3CC2CC2)cc1` [Compound I-252], inhibition was half-maximal at 0.009 µM (IC50). `CCOc1cccc(CN2[C@H]3CCNC(=O)[C@H]3[C@H](c3cccc(Cl)c3F)[C@]23C(=O)Nc2nc(Cl)ccc23)c1` [Compound I-9] registered a concentration for half-maximal inhibition (IC50) of 0.03 µM. Compared with the last compound, the IC50 is about 3.3-fold higher.

In the case of `COc1cc(C(=O)O)ccc1N1CC[C@H]2[C@@H](C1=O)[C@H](c1cccc(Cl)c1F)[C@]1(C(=O)Nc3cc(Cl)ccc31)N2CC1CC1` [Compound I-179], the midpoint of inhibition, the IC50, lay at 0.071 µM. On the same count and under the same terms, then `CCOc1cccc(CN2[C@H]3CN(c4ccc(C(=O)O)cc4)C(=O)[C@H]3[C@H](c3cccc(Cl)c3F)[C@]23C(=O)Nc2nc(Cl)ccc23)c1` [Compound I-240], with 0.004 µM.

Compound `COC(=O)c1ccc(N2CC[C@H]3[C@@H](C2=O)[C@H](c2cccc(Cl)c2F)[C@]2(C(=O)Nc4cc(Cl)ccc42)N3CC2CC2)cc1` [Compound I-63] had an IC50 of 0.103 µM. This IC50 lies about 26-fold higher than the previous one. The same measure, in the same setting: the figure for `COc1cc(C(=O)O)ccc1N1CC[C@H]2[C@@H](C1=O)[C@H](c1cccc(Cl)c1F)[C@]1(C(=O)Nc3cc(Cl)ccc31)N2CC1CC1C` (stereo partly shown) [Compound I-194] is 0.114 µM. As to `CCOc1cccc(CN2[C@H]3CN(c4ccc(C(=O)O)cc4)C(=O)[C@H]3[C@H](c3cccc(Cl)c3F)[C@]23C(=O)Nc2cc(Cl)ccc23)c1` [Compound I-237], the half-maximal inhibitory concentration (IC50) came to 0.002 µM. Against the preceding compound, the IC50 is about 57-fold lower.

`CCOc1cccc(CN2[C@@H]3CCN(c4ccc(C(=O)OC)cc4)C(=O)[C@@H]3[C@@H](c3cccc(Cl)c3F)[C@@]23C(=O)Nc2cc(Cl)ccc23)c1` [Compound I-112] returned an IC50 of 3.29 µM. This IC50 is about 1600-fold higher than that of the compound before.

`O=C1NCC[C@H]2[C@@H]1[C@H](c1cccc(Cl)c1F)[C@]1(C(=O)Nc3cc(Cl)ccc31)N2CC1CCC1` [Compound I-19]: it took 0.24 µM to reach half-maximal inhibition (IC50). On the same count and under the same terms, the figure for `CS(=O)(=O)Nc1ccc(N2C[C@H]3[C@@H](C2=O)[C@H](c2cccc(Cl)c2F)[C@]2(C(=O)Nc4cc(Cl)ccc42)N3CC2CC2)cc1F` [Compound I-302] is 0.037 µM; for `N#Cc1ccc(N2CC[C@H]3[C@@H](C2=O)[C@H](c2cccc(Cl)c2F)[C@]2(C(=O)Nc4cc(Cl)ccc42)N3CC2CC2)cc1` [Compound I-86] it is 0.159 µM; for `O=C(O)c1cccc(N2CC[C@H]3[C@@H](C2=O)[C@H](c2cccc(Cl)c2F)[C@]2(C(=O)Nc4cc(Cl)ccc42)N3CC2CC2)c1` [Compound I-175] it is 2.13 µM.

For the compound `COc1cc(C(=O)O)ccc1N1CC[C@H]2[C@@H](C1=O)[C@H](c1cccc(Cl)c1F)[C@]1(C(=O)Nc3cc(Cl)ccc31)N2CC1CCC1` [Compound I-200], the IC50 was 0.134 µM. Same read-out and setting: the figure for `Cc1cc(N2CC[C@H]3[C@@H](C2=O)[C@H](c2cccc(Cl)c2F)[C@]2(C(=O)Nc4cc(Cl)ccc42)N3CC2CC2)cc(C)c1C(=O)O` [Compound I-206] is 0.046 µM; for `O=C(O)c1ccc(N2CC[C@@H]3[C@H](C2=O)[C@@H](c2cccc(Cl)c2F)[C@@]2(C(=O)Nc4cc(Cl)ccc42)N3CC2CC2)cc1` [Compound I-172] it is 0.302 µM.

Turning to `COCCN1[C@H]2CN(c3ccc(C(=O)O)cc3)C(=O)[C@H]2[C@H](c2cccc(Cl)c2F)[C@]12C(=O)Nc1cc(Cl)ccc12` [Compound I-224], the IC50 was found to be 0.017 µM. `O=C1NCC[C@H]2[C@@H]1[C@H](c1cccc(Cl)c1F)[C@]1(C(=O)Nc3cc(Cl)c(F)cc31)N2CC1CC1` [Compound I-17] gave an IC50 of 0.324 µM. As to `CCOc1cccc(CN2[C@H]3CN(Cc4ccc(C(=O)O)cc4)C(=O)[C@H]3[C@H](c3cccc(Cl)c3F)[C@@]23C(=O)Nc2cc(Cl)ccc23)c1` [Compound I-248], 0.485 µM corresponded to half-maximal inhibition (IC50). The IC50 values of the last two compounds are within 1.5-fold of each other. Same read-out and setting: the figure for `O=C1NCC[C@H]2[C@@H]1[C@H](c1cc(Br)cc(Cl)c1F)[C@]1(C(=O)Nc3cc(Cl)ccc31)N2CC1CC1` [Compound I-11] is 0.462 µM; for `O=C(O)c1ccc(N2C[C@H]3[C@@H](C2=O)[C@H](c2ccnc(Cl)c2F)[C@]2(C(=O)Nc4cc(Cl)ccc42)N3CC2CC2)cc1` [Compound I-244] it is 0.004 µM. The same measure, in the same setting: the figure for `CNC(=O)c1ccc(N2C[C@H]3[C@@H](C2=O)[C@H](c2cccc(Cl)c2F)[C@]2(C(=O)Nc4cc(Cl)ccc42)N3CC2CC2)cc1` [Compound I-287] is 0.008 µM; for `CN(O)C(=O)c1ccc(N2CC[C@H]3[C@@H](C2=O)[C@H](c2cccc(Cl)c2F)[C@]2(C(=O)Nc4cc(Cl)ccc42)N3CC2CC2)cc1` [Compound I-276] it is 0.046 µM.

For a further series, the system named is p53 wild-type vs. p53 mutant cell lines.
Assay: not given
To be noted: Carol et al. 2013; cited from earlier work.
Take `CCOc1cc(C(C)(C)C)ccc1C1=N[C@@](C)(c2ccc(Cl)cc2)[C@@](C)(c2ccc(Cl)cc2)N1C(=O)N1CCN(CCCS(C)(=O)=O)CC1` [RG-7112]: the “cytotoxic activity, median IC50” value is “lower median IC50 values for p53 wild-type vs. p53 mutant cell lines”.

The next series has as its system solid tumor xenograft models.
Assay: not given
To be noted: Carol et al. 2013; cited from earlier work.
For the compound `CCOc1cc(C(C)(C)C)ccc1C1=N[C@@](C)(c2ccc(Cl)cc2)[C@@](C)(c2ccc(Cl)cc2)N1C(=O)N1CCN(CCCS(C)(=O)=O)CC1` [RG-7112], the tumor growth inhibition result was “induced tumor growth inhibition”.

Another series deals with acute lymphoblastic leukemia (ALL) xenograft models with mixed-lineage leukemia (MLL) rearrangement.
Assay: not given
The note with it: Carol et al. 2013; cited from earlier work.
For the compound `CCOc1cc(C(C)(C)C)ccc1C1=N[C@@](C)(c2ccc(Cl)cc2)[C@@](C)(c2ccc(Cl)cc2)N1C(=O)N1CCN(CCCS(C)(=O)=O)CC1` [RG-7112], the “efficacy in xenograft models” value is recorded as “particularly efficacious”.

The next series relates to human acute myeloid leukemia (AML) and human prostate tumor xenograft models harboring p53 wild-type.
Assay: not given
To be noted: Tovar et al. 2013; cited from earlier work.
For `CCOc1cc(C(C)(C)C)ccc1C1=N[C@@](C)(c2ccc(Cl)cc2)[C@@](C)(c2ccc(Cl)cc2)N1C(=O)N1CCN(CCCS(C)(=O)=O)CC1` [RG7112], the “antiproliferative and proapoptotic activity” value was “antiproliferative and proapoptotic activity of RG7112 has been observed”.

By IC50 is commonly meant the concentration needed to halve the response being measured. Low readings indicate greater potency in that assay, high ones weaker potency in that assay.
